# Measured values reported in US8729089B2 (Gilead Sciences, Inc., priority 2006, dated 2014).
# Columns and labels:
# [1] = CC50 assay (CellTiter-Glo) in Huh-7 HCV replicon cells; format: cell-based, human; settings: human, 3 days incubation, CellTiter-Glo readout
# Outline: (§1)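 Huh-7 cells carrying an HCV replicon (6000/well) exposed to 3-fold serial compound dilutions for 3 days at 37 °C, final DMSO 0.5% where used. EC50 read as replicon luciferase luminescence after cell lysis; CC50 from CellTiter-Glo luminescence after 10 min at room temperature.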
# [2] = test system: HCV replicon in human hepatoma Huh-7 cell line; assay: Anti-HCV replicon assay (EC50, luciferase); format: cell-based; settings: Hepatitis C virus, Huh-7, 72 h
# Outline: as §1
smiles,measurement,setting,value
"N[C@@H](CO)C(=O)Nc1ccc(-c2ccc3nc(NCc4ccc(S(N)(=O)=O)cc4)nc(NC4CC4)c3n2)cc1 [Example 182, 2-Amino-N-{4-[4-cyclopropylamino-2-(4-sulfamoyl-benzylamino)-pyrido[3,2-d]pyrimidin-6-yl]-phenyl}-3-hydroxy-propionamide]",CC50 at 3 days,[1],5 to 25 µM
same,EC50,[2],< 0.1 µM
"Nc1ncc(-c2ccc3nc(NCc4ccc(S(N)(=O)=O)cc4)nc(NC4CC4)c3n2)s1 [Example 183, 4-{[6-(2-Amino-thiazol-5-yl)-4-cyclopropylamino-pyrido[3,2-d]pyrimidin-2-ylamino]-methyl}-benzenesulfonamide]",CC50 at 3 days,[1],5 to 25 µM
same,EC50,[2],< 0.1 µM
"NS(=O)(=O)c1ccc(CNc2nc(NC3CC3)c3nc(-c4ccc(F)c(NS(=O)(=O)C5CC5)c4)ccc3n2)cc1 [Example 184, 4-{[6-(3-Cyclopropanesulfonylamino-4-fluoro-phenyl)-4-cyclopropylamino-pyrido[3,2-d]pyrimidin-2-ylamino]-methyl}-benzenesulfonamide]",CC50 at 3 days,[1],< 5 µM
same,EC50,[2],< 0.1 µM
"NS(=O)(=O)c1ccc(CNc2nc(NC3CC3)c3nc(-c4ccc(C(=O)NC5CC5)cc4)ccc3n2)cc1 [Example 185, N-Cyclopropyl-4-[4-cyclopropylamino-2-(4-sulfamoyl-benzylamino)-pyrido[3,2-d]pyrimidin-6-yl]-benzamide]",CC50 at 3 days,[1],5 to 25 µM
same,EC50,[2],< 0.1 µM
"NC(=O)c1ccc(-c2ccc3nc(NCc4ccc(S(N)(=O)=O)cc4)nc(NC4CC4)c3n2)cc1 [Example 186, 4-[4-Cyclopropylamino-2-(4-sulfamoyl-benzylamino)-pyrido[3,2-d]pyrimidin-6-yl]-benzamide]",CC50 at 3 days,[1],> 25 µM
same,EC50,[2],< 0.1 µM
"Nc1cnc(-c2ccc3nc(NCc4ccc(S(N)(=O)=O)cc4)nc(NCC(F)(F)F)c3n2)cn1 [Example 187, 4-{[6-(5-Amino-pyrazin-2-yl)-4-(2,2,2-trifluoro-ethylamino)-pyrido[3,2-d]pyrimidin-2-ylamino]-methyl}-benzenesulfonamide]",CC50 at 3 days,[1],> 25 µM
same,EC50,[2],< 0.1 µM
"Nc1ncc(-c2ccc3nc(NCc4ccc(S(N)(=O)=O)cc4)nc(NCC(F)(F)F)c3n2)s1 [Example 188, 4-{[6-(2-Amino-thiazol-5-yl)-4-(2,2,2-trifluoro-ethylamino)-pyrido[3,2-d]pyrimidin-2-ylamino]-methyl}-benzenesulfonamide]",CC50 at 3 days,[1],5 to 25 µM
same,EC50,[2],< 0.1 µM
"NS(=O)(=O)c1ccc(CNc2nc(NCC(F)(F)F)c3nc(-c4cn[nH]c4)ccc3n2)cc1 [Example 189, 4-{[6-(1H-Pyrazol-4-yl)-4-(2,2,2-trifluoro-ethylamino)-pyrido[3,2-d]pyrimidin-2-ylamino]-methyl}-benzenesulfonamide]",CC50 at 3 days,[1],5 to 25 µM
same,EC50,[2],< 0.1 µM
"NS(=O)(=O)c1ccc(CNc2nc(NCC(F)(F)F)c3nc(-c4ccc(F)nc4)ccc3n2)cc1 [Example 190, 4-{[6-(6-Fluoro-pyridin-3-yl)-4-(2,2,2-trifluoro-ethylamino)-pyrido[3,2-d]pyrimidin-2-ylamino]-methyl}-benzenesulfonamide]",CC50 at 3 days,[1],< 5 µM
same,EC50,[2],< 0.1 µM
"NS(=O)(=O)c1ccc(CNc2nc(NCC(F)(F)F)c3nc(-c4ccc(N5CCCC5=O)cc4)ccc3n2)cc1 [Example 191, 4-{[6-[4-(2-Oxo-pyrrolidin-1-yl)-phenyl]-4-(2,2,2-trifluoro-ethylamino)-pyrido[3,2-d]pyrimidin-2-ylamino]-methyl}-benzenesulfonamide]",CC50 at 3 days,[1],< 5 µM
same,EC50,[2],< 0.1 µM
"NS(=O)(=O)c1ccc(CNc2nc(NCC(F)(F)F)c3nc(-c4ccc(Cl)cc4)ccc3n2)cc1 [Example 192, 4-{[6-(4-Chloro-phenyl)-4-(2,2,2-trifluoro-ethylamino)-pyrido[3,2-d]pyrimidin-2-ylamino]-methyl}-benzenesulfonamide]",CC50 at 3 days,[1],5 to 25 µM
same,EC50,[2],< 0.1 µM
"CC(C)N1CCC(NS(=O)(=O)c2cc(-c3ccc4nc(NCc5ccc(S(N)(=O)=O)cc5)nc(NCC(F)(F)F)c4n3)ccc2Cl)CC1 [Example 193, 2-Chloro-N-(1-isopropyl-piperidin-4-yl)-5-[2-(4-sulfamoyl-benzylamino)-4-(2,2,2-trifluoro-ethylamino)-pyrido[3,2-d]pyrimidin-6-yl]-benzenesulfonamide]",CC50 at 3 days,[1],< 5 µM
same,EC50,[2],< 0.1 µM
"CC(C)(C)OC(=O)NC1CCN(S(=O)(=O)c2cc(-c3ccc4nc(NCc5ccc(S(N)(=O)=O)cc5)nc(NCC(F)(F)F)c4n3)ccc2Cl)CC1 [Example 194, (1-{2-Chloro-5-[2-(4-sulfamoyl-benzylamino)-4-(2,2,2-trifluoro-ethylamino)-pyrido[3,2-d]pyrimidin-6-yl]-benzenesulfonyl}-piperidin-4-yl)-carbamic acid tert-butyl ester]",CC50 at 3 days,[1],< 5 µM
same,EC50,[2],< 0.1 µM
"NS(=O)(=O)c1ccc(CNc2nc(NCC(F)(F)F)c3nc(-c4ccc(Cl)c(S(=O)(=O)NCCN5CCCC5)c4)ccc3n2)cc1 [Example 195, 2-Chloro-N-(2-pyrrolidin-1-yl-ethyl)-5-[2-(4-sulfamoyl-benzylamino)-4-(2,2,2-trifluoro-ethylamino)-pyrido[3,2-d]pyrimidin-6-yl]-benzenesulfonamide]",CC50 at 3 days,[1],< 5 µM
same,EC50,[2],< 0.1 µM
"CC(C)N1CCN(S(=O)(=O)c2cc(-c3ccc4nc(NCc5ccc(S(N)(=O)=O)cc5)nc(NCC(F)(F)F)c4n3)ccc2Cl)CC1 [Example 196, 4-{[6-[4-Chloro-3-(4-isopropyl-piperazine-1-sulfonyl)-phenyl]-4-(2,2,2-trifluoro-ethylamino)-pyrido[3,2-d]pyrimidin-2-ylamino]-methyl}-benzenesulfonamide]",CC50 at 3 days,[1],< 5 µM
same,EC50,[2],< 0.1 µM
"NS(=O)(=O)c1ccc(CNc2nc(NCC(F)(F)F)c3nc(-c4ccc(Cl)c(S(=O)(=O)N[C@@H]5CCNC5)c4)ccc3n2)cc1 [Example 197, 2-Chloro-N-pyrrolidin-3-yl-5-[2-(4-sulfamoyl-benzylamino)-4-(2,2,2-trifluoro-ethylamino)-pyrido[3,2-d]pyrimidin-6-yl]-benzenesulfonamide]",CC50 at 3 days,[1],< 5 µM
same,EC50,[2],< 0.1 µM
"COCCNS(=O)(=O)c1cc(-c2ccc3nc(NCc4ccc(S(N)(=O)=O)cc4)nc(NCC(F)(F)F)c3n2)ccc1Cl [Example 198, 2-Chloro-N-(2-methoxy-ethyl)-5-[2-(4-sulfamoyl-benzylamino)-4-(2,2,2-trifluoro-ethylamino)-pyrido[3,2-d]pyrimidin-6-yl]-benzenesulfonamide]",CC50 at 3 days,[1],5 to 25 µM
same,EC50,[2],< 0.1 µM
"CC(C)(CN1CCCC1)NC(=O)c1ccc(-c2ccc3nc(NCc4ccc(S(N)(=O)=O)cc4)nc(NCC(F)(F)F)c3n2)cc1 [Example 199, N-(1,1-Dimethyl-2-pyrrolidin-1-yl-ethyl)-4-[2-(4-sulfamoyl-benzylamino)-4-(2,2,2-trifluoro-ethylamino)-pyrido[3,2-d]pyrimidin-6-yl]-benzamide]",CC50 at 3 days,[1],< 5 µM
same,EC50,[2],< 0.1 µM
"NS(=O)(=O)c1ccc(CNc2nc(NCC(F)(F)F)c3nc(-c4ccc(Cl)c(S(=O)(=O)NC5CCNCC5)c4)ccc3n2)cc1 [Example 200, 2-Chloro-N-piperidin-4-yl-5-[2-(4-sulfamoyl-benzylamino)-4-(2,2,2-trifluoro-ethylamino)-pyrido[3,2-d]pyrimidin-6-yl]-benzenesulfonamide]",CC50 at 3 days,[1],< 5 µM
same,EC50,[2],< 0.1 µM
